In brackets after ≈: the same amount, converted by molar mass. Activity calls are given as the source filed them. No cut-off for these calls is given here.
Experiments:
Cytochrome P450 2D6 = Cytochrome P450 2D6 (Homo sapiens, UniProt P10635); experiment: Inhibition of human CYP2D6; format: ADME
Cytochrome P450 1A2 = molecular target: T1, Cytochrome P450 1A2 (Homo sapiens, UniProt P05177); experiment: Inhibition of human CYP1A2; format: ADME
T1 sequence (P05177 whole entry): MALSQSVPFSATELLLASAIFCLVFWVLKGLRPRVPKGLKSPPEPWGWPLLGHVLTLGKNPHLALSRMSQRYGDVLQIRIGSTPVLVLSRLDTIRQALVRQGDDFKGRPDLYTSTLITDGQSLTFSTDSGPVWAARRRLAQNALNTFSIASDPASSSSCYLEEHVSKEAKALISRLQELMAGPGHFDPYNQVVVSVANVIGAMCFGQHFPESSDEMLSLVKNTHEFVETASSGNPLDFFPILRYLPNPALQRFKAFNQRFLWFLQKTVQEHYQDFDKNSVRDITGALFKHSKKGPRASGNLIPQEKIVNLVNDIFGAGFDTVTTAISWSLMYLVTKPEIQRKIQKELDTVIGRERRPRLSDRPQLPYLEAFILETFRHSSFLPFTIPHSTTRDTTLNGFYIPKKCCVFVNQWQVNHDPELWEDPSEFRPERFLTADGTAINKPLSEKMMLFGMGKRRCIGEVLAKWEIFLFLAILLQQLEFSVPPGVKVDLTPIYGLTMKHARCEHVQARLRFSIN

[1] = Unbound fraction in human plasma; format: ADME, cell-free
[2] = Permeability across basolateral to apical side in human Caco2 cells; format: ADME, cell-based; settings: Caco-2, read-out: permeability
[3] = Inhibition of Mycobacterium smegmatis thioredoxin 6xHis-tagged decaprenylphosphoryl-beta-D-ribose2'-epimerase 1 overexpressed in Escherichia coli rosetta cells using farnesyl-phosphoryl-beta-D-ribofuranose as substrate; design: species or system Mycolicibacterium smegmatis
Cytochrome P450 2C9 = Cytochrome P450 2C9 (Homo sapiens, UniProt P11712); experiment: Inhibition of human CYP2C9; format: ADME
Cytochrome P450 2C9, sequence (P11712 whole entry): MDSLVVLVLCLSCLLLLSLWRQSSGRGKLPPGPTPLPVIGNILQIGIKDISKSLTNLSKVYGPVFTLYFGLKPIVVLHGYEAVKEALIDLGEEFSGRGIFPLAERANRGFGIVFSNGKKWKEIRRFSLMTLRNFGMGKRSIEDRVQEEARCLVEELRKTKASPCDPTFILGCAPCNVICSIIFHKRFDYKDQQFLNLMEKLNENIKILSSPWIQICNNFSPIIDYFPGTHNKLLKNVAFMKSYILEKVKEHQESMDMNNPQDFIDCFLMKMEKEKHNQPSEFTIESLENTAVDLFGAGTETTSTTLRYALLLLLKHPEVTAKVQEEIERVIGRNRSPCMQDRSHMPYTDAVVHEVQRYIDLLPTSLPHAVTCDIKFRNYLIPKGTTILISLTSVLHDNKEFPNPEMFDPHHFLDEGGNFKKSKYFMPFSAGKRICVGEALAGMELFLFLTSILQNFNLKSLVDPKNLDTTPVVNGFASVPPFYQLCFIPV

[4] = tested on: Mycobacterium tuberculosis; format: functional, organism-based; design: dose 100 mg/kg; settings: H37Rv ATCC 27294, Lung, 100 mg/kg
Cytochrome P450 2C19 = Cytochrome P450 2C19 (Homo sapiens, UniProt P33261); experiment: Inhibition of human CYP2C19; format: ADME
Cytochrome P450 2C19, sequence (P33261 whole entry): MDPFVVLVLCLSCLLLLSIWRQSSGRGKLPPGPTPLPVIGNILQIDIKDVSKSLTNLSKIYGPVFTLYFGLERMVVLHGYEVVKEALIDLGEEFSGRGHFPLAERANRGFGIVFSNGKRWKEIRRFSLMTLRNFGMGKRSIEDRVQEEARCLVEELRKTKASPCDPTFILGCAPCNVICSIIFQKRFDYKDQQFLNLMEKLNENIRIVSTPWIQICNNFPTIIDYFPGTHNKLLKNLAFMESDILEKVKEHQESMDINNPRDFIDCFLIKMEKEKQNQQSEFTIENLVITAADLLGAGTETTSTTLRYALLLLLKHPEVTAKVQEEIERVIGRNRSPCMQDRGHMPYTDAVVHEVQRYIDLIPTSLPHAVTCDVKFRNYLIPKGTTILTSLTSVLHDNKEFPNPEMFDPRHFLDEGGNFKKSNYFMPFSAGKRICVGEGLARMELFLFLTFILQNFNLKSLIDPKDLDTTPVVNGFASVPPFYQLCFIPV

Cytochrome P450 3A4 = Cytochrome P450 3A4 (Homo sapiens, UniProt P08684); experiment: Inhibition of human CYP3A4; format: ADME
Cytochrome P450 3A4, sequence (P08684 whole entry): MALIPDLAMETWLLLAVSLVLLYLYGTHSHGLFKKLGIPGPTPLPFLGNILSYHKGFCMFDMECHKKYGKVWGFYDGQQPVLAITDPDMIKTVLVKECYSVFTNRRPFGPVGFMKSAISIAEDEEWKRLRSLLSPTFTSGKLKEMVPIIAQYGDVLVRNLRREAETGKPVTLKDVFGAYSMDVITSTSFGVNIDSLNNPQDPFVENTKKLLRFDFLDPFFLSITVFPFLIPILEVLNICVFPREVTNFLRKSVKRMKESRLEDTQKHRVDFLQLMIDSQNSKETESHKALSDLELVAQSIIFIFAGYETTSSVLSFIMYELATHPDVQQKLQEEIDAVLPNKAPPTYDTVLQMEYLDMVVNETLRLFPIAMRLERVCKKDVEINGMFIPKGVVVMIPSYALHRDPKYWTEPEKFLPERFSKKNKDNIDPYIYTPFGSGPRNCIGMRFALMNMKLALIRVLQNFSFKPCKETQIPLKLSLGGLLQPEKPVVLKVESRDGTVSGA

Rattus norvegicus = experiment: T>MIC in Wistar rat chronically infected with Mycobacterium tuberculosis H37Rv ATCC 27294 at 100 mg/kg, po
[5] = Intrinsic clearance in mouse liver microsomes; format: ADME; settings: read-out: CLH
[6] = Permeability across apical to basolateral side in human Caco2 cells; format: ADME, cell-based; settings: Caco-2, read-out: permeability
[7] = AUC in Mycobacterium tuberculosis H37Rv ATCC 27294 infected Wistar rat infection model at 100 mg/kg, po; format: ADME, organism-based; design: dose 100 mg/kg, route oral; settings: Wistar, in vivo
[8] = tested on: Mycobacterium tuberculosis; format: functional, H37Rv ATCC 27294, THP-1
Phosphodiesterase 6 = experiment: Inhibition of PDE6 (unknown origin); format: protein assay, Homo sapiens
[9] = Octanol-water partition coefficient, log D of the compound at pH 7.4 by shake flask method; format: physicochemical
[10] = tested on: Mycobacterium tuberculosis; experiment: microbe, parasite or virus in culture; settings: H37Rv ATCC 27294, 120 h
Description: Antimicrobial activity against Mycobacterium tuberculosis H37Rv ATCC 27294 assessed as growth inhibition after 5 days by microdilution method

[11] = Aqueous solubility of the compound in phosphate buffer at pH 7.4 after 24 hrs by UV-MS analysis; format: physicochemical
[12] = molecular target: Voltage-gated inwardly rectifying potassium channel KCNH2 (Homo sapiens, UniProt Q12809)
Voltage-gated inwardly rectifying potassium channel KCNH2, sequence (Q12809 whole entry): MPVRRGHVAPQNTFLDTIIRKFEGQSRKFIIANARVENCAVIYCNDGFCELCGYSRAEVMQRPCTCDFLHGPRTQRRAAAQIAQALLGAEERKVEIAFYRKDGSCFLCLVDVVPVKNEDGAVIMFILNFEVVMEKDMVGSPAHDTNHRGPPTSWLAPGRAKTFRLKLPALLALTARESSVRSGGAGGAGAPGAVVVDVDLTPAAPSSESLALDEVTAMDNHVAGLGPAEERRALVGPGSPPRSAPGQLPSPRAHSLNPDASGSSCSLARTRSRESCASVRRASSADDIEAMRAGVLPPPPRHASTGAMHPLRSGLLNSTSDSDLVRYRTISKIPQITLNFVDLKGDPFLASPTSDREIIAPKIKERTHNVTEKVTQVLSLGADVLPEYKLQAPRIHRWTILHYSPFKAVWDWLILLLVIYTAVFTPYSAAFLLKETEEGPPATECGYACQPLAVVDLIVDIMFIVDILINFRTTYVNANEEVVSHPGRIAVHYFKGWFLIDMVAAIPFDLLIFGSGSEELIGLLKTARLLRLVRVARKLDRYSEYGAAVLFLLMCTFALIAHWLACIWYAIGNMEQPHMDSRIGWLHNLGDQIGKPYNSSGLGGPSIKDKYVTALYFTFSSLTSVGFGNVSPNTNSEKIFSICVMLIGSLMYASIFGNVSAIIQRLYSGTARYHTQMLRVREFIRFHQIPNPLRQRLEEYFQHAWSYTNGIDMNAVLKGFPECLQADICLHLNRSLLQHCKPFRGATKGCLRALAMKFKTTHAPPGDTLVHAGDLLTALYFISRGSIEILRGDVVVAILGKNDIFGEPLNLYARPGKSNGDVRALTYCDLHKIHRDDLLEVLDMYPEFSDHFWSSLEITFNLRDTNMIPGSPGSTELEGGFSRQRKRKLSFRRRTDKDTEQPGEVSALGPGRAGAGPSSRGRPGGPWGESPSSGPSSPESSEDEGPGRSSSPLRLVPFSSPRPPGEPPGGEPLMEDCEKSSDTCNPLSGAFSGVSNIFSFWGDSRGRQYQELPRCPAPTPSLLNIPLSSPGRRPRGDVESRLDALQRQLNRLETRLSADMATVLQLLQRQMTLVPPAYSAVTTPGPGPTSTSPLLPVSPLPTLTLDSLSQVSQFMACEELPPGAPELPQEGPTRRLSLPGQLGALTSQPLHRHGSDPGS

[13] = Clearance in po dosed rat; format: ADME, organism-based; settings: in vivo
[14] = Oral bioavailability in rat; format: ADME, organism-based; settings: in vivo
[15] = AUC (infinity) in BALB/c mouse at 50 mg/kg, po administered as single dose; format: ADME, organism-based; design: dose 50 mg/kg, route oral, time infinity; settings: plasma
[16] = Cmax in BALB/c mouse at 50 mg/kg, po administered as single dose; format: ADME, organism-based; design: dose 50 mg/kg, route oral; settings: in vivo
[17] = Tmax in BALB/c mouse at 50 mg/kg, po administered as single dose; format: ADME, organism-based; design: dose 50 mg/kg, route oral; settings: in vivo
[18] = Half life in BALB/c mouse at 50 mg/kg, po administered as single dose; format: ADME, organism-based; design: dose 50 mg/kg, route oral; settings: in vivo
[19] = Half life in BALB/c mouse at 100 mg/kg, po administered as single dose; format: ADME, organism-based; design: dose 100 mg/kg, route oral; settings: in vivo
[20] = Tmax in BALB/c mouse at 100 mg/kg, po administered as single dose; format: ADME, organism-based; design: dose 100 mg/kg, route oral; settings: in vivo
[21] = Cmax in BALB/c mouse at 100 mg/kg, po administered as single dose; format: ADME, organism-based; design: dose 100 mg/kg, route oral; settings: in vivo
[22] = AUC (infinity) in BALB/c mouse at 100 mg/kg, po administered as single dose; format: ADME, organism-based; design: time infinity, dose 100 mg/kg, route oral; settings: plasma
[23] = Mycobacterium tuberculosis, H37Rv ATCC 27294, read-out: MIC

Cytochrome P450 2D6, sequence (P10635 whole entry): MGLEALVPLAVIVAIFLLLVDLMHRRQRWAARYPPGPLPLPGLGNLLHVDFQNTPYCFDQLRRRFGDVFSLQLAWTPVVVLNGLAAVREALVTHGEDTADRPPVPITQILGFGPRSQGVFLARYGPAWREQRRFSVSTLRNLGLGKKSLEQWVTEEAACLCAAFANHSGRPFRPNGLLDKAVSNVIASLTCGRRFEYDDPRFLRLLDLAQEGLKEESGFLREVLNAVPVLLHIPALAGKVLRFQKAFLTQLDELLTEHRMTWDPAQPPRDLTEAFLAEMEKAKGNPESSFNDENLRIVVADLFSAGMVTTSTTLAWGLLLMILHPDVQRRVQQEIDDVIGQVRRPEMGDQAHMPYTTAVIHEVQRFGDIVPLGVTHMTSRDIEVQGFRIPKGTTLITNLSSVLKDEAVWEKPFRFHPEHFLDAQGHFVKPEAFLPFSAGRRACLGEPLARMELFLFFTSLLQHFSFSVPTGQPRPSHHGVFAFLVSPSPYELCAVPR

COc1ncnc(Cn2cc(C(=O)NCC(F)F)c3ncc(C)cc32)c1C
IC50 (Cytochrome P450 2D6): > 50 µM
IC50 (Cytochrome P450 1A2): > 50 µM
fraction unbound [1]: 0.05
Papp B→A [2]: 9 ×10⁻⁶ cm/s
IC50 [3]: < 0.005 µM
IC50 (Cytochrome P450 2C9): > 50 µM
Activity [4]: Active
IC50 (Cytochrome P450 2C19): > 50 µM
IC50 (Cytochrome P450 3A4): > 50 µM
T>MIC (Rattus norvegicus): 10 h
microsomal CLint [5]: 77 µL/min/mg
Papp A→B [6]: 24 ×10⁻⁶ cm/s
AUC [7]: 23 µM·h
MIC [8, 23]: < 0.39 µM
IC50 (Phosphodiesterase 6): > 10 µM
logD [9]: 2.9
MIC [10]: < 0.39 µM
solubility at 24 h [11]: 3 µM (≈ 1.13 µg/mL)
IC50 [12]: > 33 µM

COc1ncnc(Cn2cc(C(=O)NCCF)c3ncccc32)c1C
IC50 [3]: 0.01 µM
MIC [8]: 0.78 µM (≈ 0.268 µg/mL)
IC50 (Phosphodiesterase 6): 9 µM

COc1cnc2c(C(=O)NCC(F)F)cn(Cc3ncnc(OC(F)F)c3C)c2c1
IC50 [3]: 0.005 µM
MIC [8, 23]: < 0.39 µM
logD [9]: 2.4

COc1cnc2c(C(=O)NCCF)cn(Cc3ncnc(OC)c3C)c2c1
IC50 [3]: 0.013 µM
microsomal CLint [5]: 129 µL/min/mg
MIC [8, 23]: < 0.39 µM
logD [9]: 2.5

COc1ccc(F)cc1Cn1cc(C(=O)NCC2CC2)c2nccc(C)c21
IC50 [3]: 0.012 µM
MIC [8, 23]: 6.25 µM (≈ 2.3 µg/mL)

COc1cnc2c(C(=O)NCCO)cn(Cc3ncnc(OC(F)F)c3C)c2c1
IC50 [3]: 0.017 µM
MIC [8, 23]: 0.78 µM (≈ 0.318 µg/mL)

Cc1cnc2c(C(=O)NCCF)cn(Cc3nccc(OCC(F)(F)F)c3C)c2c1
IC50 [3]: 0.019 µM
MIC [8, 23]: 1.56 µM (≈ 0.662 µg/mL)
IC50 (Phosphodiesterase 6): > 100 µM

Cc1cnc2c(C(=O)NCCF)cn(Cc3ncc(C)nc3C)c2c1
IC50 [3]: 0.011 µM
microsomal CLint [5]: 22 µL/min/mg
MIC [8, 23]: < 0.39 µM
logD [9]: 2.2

CO[C@H]1/C=C/O[C@@]2(C)Oc3c(C)c(O)c4c(O)c(cc(O)c4c3C2=O)NC(=O)/C(C)=C\C=C\[C@H](C)[C@H](O)[C@@H](C)[C@@H](O)[C@@H](C)[C@H](OC(C)=O)[C@@H]1C [RIFAMYCIN]
MIC [10]: 0.004 µM (≈ 0.00279 µg/mL)

COc1ncnc(Cn2cc(C(=O)NCCO)c3ncc(C)cc32)c1C [TBA-7371]
IC50 (Cytochrome P450 2D6): > 50 µM
IC50 (Cytochrome P450 1A2): > 50 µM
CL/F [13]: 27 mL/min/kg
bioavailability [14]: 100%
IC50 [3]: 0.01 µM
IC50 (Cytochrome P450 2C9): > 50 µM
AUC(0-inf) [15]: 62 µM·h
Cmax [16]: 73 µM
Tmax [17]: 15 min
IC50 (Cytochrome P450 2C19): > 50 µM
IC50 (Cytochrome P450 3A4): > 50 µM
half-life [18]: 42 min
IC50 [12]: > 33 µM

Cc1c(Cn2cc(C(=O)NCCF)c3ncccc32)ncnc1N(C)C
IC50 [3]: 0.02 µM
IC50 (Phosphodiesterase 6): > 100 µM

Cc1cnc2c(C(=O)NCC(F)F)cn(Cc3ncc(C)nc3C)c2c1
IC50 [3]: 0.015 µM
MIC [8, 23]: < 0.39 µM
logD [9]: 2.4

COc1cnc2c(C(=O)NCCO)cn(Cc3ncnc(OC)c3C)c2c1
IC50 (Cytochrome P450 2D6): > 50 µM
IC50 (Cytochrome P450 1A2): > 50 µM
half-life [19]: 120 min
CL/F [13]: 12 mL/min/kg
fraction unbound [1]: 0.17
bioavailability [14]: 100%
Papp B→A [2]: 31 ×10⁻⁶ cm/s
IC50 [3]: 0.019 µM
IC50 (Cytochrome P450 2C9): > 50 µM
Tmax [20]: 30 min
Cmax [21]: 105 µM
IC50 (Cytochrome P450 2C19): > 50 µM
IC50 (Cytochrome P450 3A4): > 50 µM
microsomal CLint [5]: < 24 µL/min/mg
Papp A→B [6]: 11 ×10⁻⁶ cm/s
MIC [8, 23]: 0.78 µM (≈ 0.29 µg/mL)
IC50 (Phosphodiesterase 6): 2 µM
logD [9]: 1.6
MIC [10]: 1.56 µM (≈ 0.579 µg/mL)
solubility at 24 h [11]: 315 µM (≈ 117 µg/mL)
AUC(0-inf) [22]: 286 µM·h

COc1cnc2c(C(=O)NCCO)cn(Cc3ncnc(N(C)C)c3C)c2c1
IC50 (Cytochrome P450 2D6): > 50 µM
IC50 (Cytochrome P450 1A2): > 50 µM
half-life [19]: 120 min
CL/F [13]: 16 mL/min/kg
fraction unbound [1]: 0.3
bioavailability [14]: 87%
Papp B→A [2]: 39 ×10⁻⁶ cm/s
IC50 [3]: 0.043 µM
IC50 (Cytochrome P450 2C9): > 50 µM
Tmax [20]: 18 min
Cmax [21]: 23 µM
IC50 (Cytochrome P450 2C19): > 50 µM
IC50 (Cytochrome P450 3A4): > 50 µM
microsomal CLint [5]: 26 µL/min/mg
Papp A→B [6]: 3 ×10⁻⁶ cm/s
MIC [8, 23]: < 0.39 µM
IC50 (Phosphodiesterase 6): > 100 µM
logD [9]: 1.6
MIC [10]: 0.39 µM (≈ 0.15 µg/mL)
solubility at 24 h [11]: 129 µM (≈ 49.6 µg/mL)
IC50 [12]: > 33 µM
AUC(0-inf) [22]: 57 µM·h

COc1ncnc(Cn2cc(C(=O)NCCF)c3ncc(F)cc32)c1C
MIC [8, 23]: 6.25 µM (≈ 2.26 µg/mL)

COc1ncc(F)cc1Cn1cc(C(=O)NC[C@H](C)F)c2ncc(C)cc21
IC50 [3]: 0.004 µM
MIC [8, 23]: < 0.39 µM
IC50 (Phosphodiesterase 6): > 100 µM

Reference: ChEMBL document CHEMBL3286390, “Lead optimization of 1,4-azaindoles as antimycobacterial agents” (J Med Chem, 2014)
